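Step 1: Grow cells in 96-well plates. Step 2: Expose to compound for 48 hours at 5 concentrations. Step 3: Interpolate endpoints linearly; if unreached, use highest concentration. Here, GI50 denotes the concentration required for 50% inhibition of growth. TGI: total growth inhibition.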
What was measured:
Test in all cases: NCI-60 cell line screen, 48 h
[1] = system: 786-0 renal
[2] = system: A498 renal
[3] = system: A549 NSCLC
[4] = system: ACHN renal
[5] = system: BT-549 breast
[6] = system: CAKI-1 renal
[7] = system: COLO 205 colon
[8] = system: DU-145 prostate
[9] = system: EKVX NSCLC
[10] = system: HCC-2998 colon
[11] = system: HCT-116 colon
[12] = system: HCT-15 colon
[13] = system: HL-60(TB) leukemia
[14] = system: HOP-62 NSCLC
[15] = system: HOP-92 NSCLC
[16] = system: IGROV1 ovarian
[17] = system: K-562 leukemia
[18] = system: KM12 colon
[19] = system: M14 melanoma
[20] = system: MALME-3M melanoma
[21] = system: MDA-MB-231 breast
[22] = system: MDA-MB-435
[23] = system: NCI-H226 lung
[24] = system: NCI-H23 lung
[25] = system: NCI-H460 lung
[26] = system: NCI-H522 lung
[27] = system: NCI/ADR-RES ovarian
[28] = system: OVCAR-3 ovarian
[29] = system: OVCAR-4 ovarian
[30] = system: OVCAR-5 ovarian
[31] = system: OVCAR-8 ovarian
[32] = system: PC-3 prostate
[33] = system: RPMI-8226 leukemia
[34] = system: RXF 393 renal
[35] = system: SF-268 CNS
[36] = system: SF-295 CNS
[37] = system: SF-539 CNS
[38] = system: SK-MEL-2 melanoma
[39] = system: SK-MEL-28 melanoma
[40] = system: SK-OV-3 ovarian
[41] = system: SNB-19 CNS
[42] = system: SNB-75 CNS
[43] = system: SR leukemia
[44] = system: SW-620 colon
[45] = system: T-47D breast
[46] = system: TK-10 renal
[47] = system: U251 CNS
[48] = system: UACC-62 melanoma
[49] = system: UO-31 renal
[50] = system: MOLT-4 leukemia
[51] = system: SK-MEL-5 melanoma
[52] = system: UACC-257 melanoma
[53] = system: CCRF-CEM leukemia
[54] = system: HT29 colon
[55] = system: MCF7 breast
[56] = system: SN12C renal

N#Cc1c(-c2ccc(Cl)cc2)cc(-c2ccc(Nc3ccnc4cc(Cl)ccc34)cc2)nc1N
TGI [1]: > 100 µM | TGI [2]: > 100 µM | TGI [3]: > 100 µM | TGI [4]: > 100 µM | TGI [5]: > 100 µM | TGI [6]: > 100 µM | TGI [7]: > 100 µM | TGI [8]: > 100 µM | TGI [9]: > 100 µM | TGI [10]: > 100 µM | TGI [11]: > 100 µM | TGI [12]: > 100 µM | TGI [13]: > 100 µM | TGI [14]: > 100 µM | TGI [15]: > 100 µM | TGI [16]: > 100 µM | TGI [17]: > 100 µM | TGI [18]: > 100 µM | TGI [19]: > 100 µM | TGI [20]: > 100 µM | TGI [21]: > 100 µM | TGI [22]: > 100 µM | TGI [23]: > 100 µM | TGI [24]: > 100 µM | TGI [25]: > 100 µM | TGI [26]: > 100 µM | TGI [27]: > 100 µM | TGI [28]: > 100 µM | TGI [29]: > 100 µM | TGI [30]: > 100 µM | TGI [31]: > 100 µM | TGI [32]: > 100 µM | TGI [33]: > 100 µM | TGI [34]: > 100 µM | TGI [35]: > 100 µM | TGI [36]: > 100 µM | TGI [37]: > 100 µM | TGI [38]: > 100 µM | TGI [39]: > 100 µM | TGI [40]: > 100 µM | TGI [41]: > 100 µM | TGI [42]: > 100 µM | TGI [43]: > 100 µM | TGI [44]: > 100 µM | TGI [45]: > 100 µM | TGI [46]: > 100 µM | TGI [47]: > 100 µM | TGI [48]: > 100 µM | TGI [49]: > 100 µM

CCCN1CCN(c2ccc3nc(-c4ccc5nc(-c6ccc(C(F)(F)F)cc6)[nH]c5c4)[nH]c3c2)CC1
GI50 [1]: 1.78 µM | TGI [1]: 3.27 µM | GI50 [2]: 1.87 µM | TGI [2]: 3.77 µM | GI50 [4]: 1.6 µM | TGI [4]: 2.96 µM | GI50 [5]: 1.75 µM | TGI [5]: 3.2 µM | GI50 [6]: 1.76 µM | TGI [6]: 3.2 µM | GI50 [7]: 1.52 µM | TGI [7]: 3.24 µM | GI50 [8]: 1.9 µM | TGI [8]: 3.36 µM | GI50 [9]: 1.87 µM | TGI [9]: 3.33 µM | GI50 [10]: 1.89 µM | TGI [10]: 3.46 µM | GI50 [11]: 1.38 µM | TGI [11]: 2.71 µM | GI50 [13]: 2 µM | TGI [13]: 3.76 µM | GI50 [14]: 1.56 µM | TGI [14]: 3.15 µM | GI50 [18]: 1.78 µM | TGI [18]: 3.32 µM | GI50 [19]: 1.48 µM | TGI [19]: 2.88 µM | GI50 [20]: 1.35 µM | TGI [20]: 2.77 µM | GI50 [21]: 1.98 µM | TGI [21]: 3.52 µM | GI50 [22]: 1.86 µM | TGI [22]: 3.47 µM | GI50 [50]: 1.87 µM | TGI [50]: 3.62 µM | GI50 [24]: 1.71 µM | TGI [24]: 3.22 µM | GI50 [27]: 6.46 µM | TGI [27]: > 100 µM | GI50 [28]: 1.65 µM | TGI [28]: 3.07 µM | GI50 [29]: 1.75 µM | TGI [29]: 3.44 µM | GI50 [30]: 1.93 µM | TGI [30]: 3.36 µM | GI50 [35]: 1.88 µM | TGI [35]: 3.56 µM | GI50 [36]: 1.66 µM | TGI [36]: 3.1 µM | GI50 [37]: 1.77 µM | TGI [37]: 3.2 µM | GI50 [38]: 1.92 µM | TGI [38]: 3.58 µM | GI50 [39]: 1.78 µM | TGI [39]: 3.25 µM | GI50 [51]: 1.77 µM | TGI [51]: 3.48 µM | GI50 [42]: 1.5 µM | TGI [42]: 2.93 µM | GI50 [52]: 1.85 µM | TGI [52]: 3.57 µM | GI50 [48]: 1.66 µM | TGI [48]: 3.23 µM

COc1ccc2[nH]c3c(C)c4ccnc(NCCCN(C)CCCNc5ccc([N+](=O)[O-])c6[nH]c7ccccc7c(=O)c56)c4c(C)c3c2c1
TGI [3]: 0.0783 µM | TGI [4]: 0.648 µM | TGI [53]: 4.12 µM | TGI [8]: 1.27 µM | TGI [9]: 0.964 µM | TGI [10]: 0.568 µM | TGI [12]: 0.68 µM | TGI [13]: 50 µM | TGI [14]: 1.06 µM | TGI [54]: 0.107 µM | TGI [16]: 0.755 µM | TGI [17]: 4.41 µM | TGI [18]: 1.43 µM | TGI [19]: 0.988 µM | TGI [55]: 0.0954 µM | TGI [21]: 1.81 µM | TGI [50]: 0.989 µM | TGI [25]: 0.0678 µM | TGI [26]: 0.822 µM | TGI [28]: 1.2 µM | TGI [30]: 1.26 µM | TGI [31]: 1.11 µM | TGI [32]: 1.21 µM | TGI [33]: 50 µM | TGI [37]: 0.726 µM | TGI [38]: 1.46 µM | TGI [41]: 1.42 µM | TGI [49]: 2.21 µM

O=[N+]([O-])c1ccc(OCc2nnc(CCCCCCCCc3nnc(COc4ccc([N+](=O)[O-])cc4)o3)o2)cc1
TGI [1]: > 100 µM | TGI [2]: > 100 µM | TGI [3]: > 100 µM | TGI [4]: > 100 µM | TGI [5]: > 100 µM | TGI [7]: > 100 µM | TGI [8]: > 100 µM | TGI [9]: > 100 µM | TGI [10]: > 100 µM | TGI [11]: > 100 µM | TGI [12]: > 100 µM | TGI [15]: > 100 µM | TGI [54]: > 100 µM | TGI [16]: > 100 µM | TGI [17]: > 100 µM | TGI [18]: > 100 µM | TGI [19]: > 100 µM | TGI [20]: > 100 µM | TGI [55]: > 100 µM | TGI [21]: > 100 µM | TGI [22]: > 100 µM | TGI [50]: > 100 µM | TGI [23]: > 100 µM | TGI [24]: > 100 µM | TGI [25]: > 100 µM | TGI [26]: > 100 µM | TGI [27]: > 100 µM | TGI [28]: > 100 µM | TGI [29]: > 100 µM | TGI [30]: > 100 µM | TGI [32]: > 100 µM | TGI [33]: > 100 µM | TGI [34]: 83.3 µM | TGI [35]: > 100 µM | TGI [36]: > 100 µM | TGI [38]: > 100 µM | TGI [39]: > 100 µM | TGI [51]: > 100 µM | TGI [40]: > 100 µM | TGI [56]: > 100 µM | TGI [41]: > 100 µM | TGI [42]: > 100 µM | TGI [44]: > 100 µM | TGI [46]: > 100 µM | TGI [47]: > 100 µM | TGI [52]: > 100 µM | TGI [48]: > 100 µM | TGI [49]: > 100 µM
